Entries after “also recorded” stand apart in the source; their conditions may differ.
How the values were obtained:
A549 cells = experiment: MTT assay, non-small-cell lung cancer cell line; assay type: cell-based, human; details: 1x10^-8 to 1x10^-5 M, FIG. 7
Excerpt: (§1) Representative compounds of the invention were screened for anti-cancer activity by the procedures and methods described below. The following human cancer cell lines were used to detect anti-cancer activity. • The breast cancer cell line MDA-MB468 served to detect anti-breast cancer activity. • The prostate cancer cell line PC-3 was used to detect anti-prostate cancer activity • The non-small-cell lung cancer cell line A549 was used to detect anti-lung cancer activity • The pancreatic cancer cell line BX-PC-3 was used to detect anti-pancreatic cancer activity. • Cell lines were purchased from American Type Culture Collection (ATCC). Cell Culture conditions:
(§2) The cancer cell cultures were grown as recommended by the ATTC manuals. A549 cells and BX-PC-3 cells were grown in DME Dulbecco's modified Eagle's medium containing 4500 mg/L glucose; 4 mM L-glutamine; 10 U/ml Pen-G; 10 mcg/ml […] and 10% fetal calf serum (FCS). PC-3 and MDA-MB468 cells were grown in RPMI medium 1640 containing 2 mM L-glutamine; 10 U/ml Pen-G; 10 mcg/ml Streptomycin and 10% FCS. Cells were kept at 6% CO2 and 37° C. Cells were seeded on day zero in 96-well format tissue culture plates at suitable densities the day before starting treatment, in the media indicated above.
(§3) On day one, the compounds of the invention were added to the culture media of growing cells, containing 10% […]. The cell media contained the compounds of the invention at one of six concentrations: 1×10^−8, 5×10^−8, 1×10^−7, 5×10^−7, 1×10^−6, and 1×10^−5M. In control experiments, 0.1% DMSO was used as vehicle control, and never exceeded 0.1% final concentration. On day four the media was removed from the cells and replaced with fresh media containing the compounds of the invention and FCS at the appropriate concentrations.
On day five 10 μl of 5 mg/ml MTT dye was added to each well containing a cell culture. The MTT assay is based on the dehydrogenase activity in active mitochondria for cleavage of the yellow tetrazolium salt MTT to produce purple formazan crystals. This conversion of MTT only occurs in living cells with intact/functional mitochondria. After addition of MTT, the cells were incubated for additional 4 hours at 6% CO2 and 37° C. Reaction was then stopped by adding 100 μl/well of a solubilization solution consisting of 10% Sodium Dodecyl Sulfate (SDS) and 10 mM HCl. On day 6 the formazan crystals formed were solubilized and the resulting colored solution quantified using a scanning multiwell spectrophotometer at a wavelength of 595 nm.
The procedure of Example 21 was employed to measure the anti-cancer activity of compounds 1 & 2 of the invention and compare them with equivalent activity tests for Comparative Compound 4, whose synthesis is given in Example 4. […]

[1] = tested on: phosphorylated JNK proteins; experiment: Western Blot assay for JNK protein phosphorylation in H292 lung cancer cells; assay type: cell-based, human; details: 2.5 micromolar, 16 hours, FIG. 15
Experimental: Phosphorylated JNK proteins can be specifically detected by employing an antibody specific to phosphorylated JNK, followed by Western Blotting analysis. […] In particular, the human lung cancer cell line H292, purchased from the American Type Culture Collection (ATCC) (Manassas, Va.), was tested for JNK-activation induced by compounds 1, 2, 11, and 12 described herein.
H292 cells were grown in RPMI medium 1640 containing 2 mM L-glutamine; 10 U/ml Pen-G; 10 mcg/ml Streptomycin and 10% FCS.
Cells were kept at 6% CO2 and 37° C. H292 cells were plated at 70% confluence (adherent growing cells covering 70% of culture plate surface area) in a 10 centimeter tissue culture dish in the medium indicated above.
Compounds 1, 2, 11, and 12 were applied to cultures of the H292 cells in the medium indicated above at a concentration of 2.5 micromolar. DMSO (dimethyl sulfoxide, Sigma, St. Louis, Mo.) was used as vehicle control, and never exceeded 0.1% final concentration. Treatment was for 16 hours.
At the end of incubation of the cultured cells with the test compounds, the medium was removed and the plated cells were washed twice with cold PBS (phosphate buffer saline). Excess PBS was aspirated away and the cells were lysed and scraped into sample buffer containing 50 mM HEPES pH 7.5 (buffer), 150 mM NaCl, 0.1% Tween 20 (a detergent, Biorad, Hercules, Calif.), 20 mM NaF, 10 mcg/mL aprotinin, 10 mcg/mL leupeptin. Samples were incubated on ice for 15 minutes and insoluble material was pelleted by microfugation. Protein concentrations for each sample were determined using BSA (Bovine serum albumin, Sigma, St Louis, Mo.) as a standard in a colorimetric protein quantification assay (BioRad, Hercules, Calif.).
100 mcg of each sample of cellular lysate were subjected to electrophoresis on 12% SDS-PAGE (polyacrylamide gel electrophoresis) gels (BioRad, Hercules, Calif.). Proteins were transferred to PVDF membrane. Membranes were probed with a monoclonal antibody recognizing phosphorylated JNK (Cell Signaling, Beverly, Mass.) followed by HRP(horseradish peroxidase)-conjugated goat-anti-mouse antibody (Santa Cruz Biotechnology, Santa Cruz, Calif.). Immunoreative bands were visualized by ECL (enhanced chemiluminescence, Amersham, Buckinghanshire, England) detection on film (Kodak, Rochester, N.Y.).

MDA-MB468 cells = experiment: MTT assay, breast cancer cell line; assay type: cell-based, human; details: 1x10^-8 to 1x10^-5 M, FIG. 8
Excerpt: as §1, §2, §3
(§4) On day five 10 μl of 5 mg/ml MTT dye was added to each well containing a cell culture. […] On day 6 the formazan crystals formed were solubilized and the resulting colored solution quantified using a scanning multiwell spectrophotometer at a wavelength of 595 nm. […]

PC-3 cells = experiment: MTT assay, prostate cancer cell line; assay type: cell-based, human; details: PC-3 prostate cancer cells; 1x10^-8 to 1x10^-5 M; FIG. 9
Excerpt: as §1, §2, §3, §4

BX-PC-3 cells = experiment: MTT assay, pancreatic cancer cell line; assay type: cell-based, human; details: BX-PC-3 pancreatic cancer cells; 1x10^-8 to 1x10^-5 M; FIG. 10
Excerpt: as §1, §2, §3, §4

Row | SMILES | anti-cancer activity (MTT) (A549 cells) | phosphorylation of JNK proteins (phospho-JNK bands) [1] | melting point | anti-cancer activity (MTT) (MDA-MB468 cells) | anti-cancer activity (MTT) (PC-3 cells) | anti-cancer activity (MTT) (BX-PC-3 cells)
1 | Cc1nc2cc(-c3ccc(/C=C4\SC(=O)NC4=O)cn3)cc(C3CCCCC3)c2o1 [Compound 11, 5-[6-(7-Cyclohexyl-2-methyl-benzoxazol-5-yl)-pyridin-3-ylmethylene]-thiazolidine-2,4-dione] | only relatively weak activity | only weakly induced the phosphorylation of JNK proteins | 314 to 316 °C | – | – | –
2 | Cc1nc2cc(-c3ccc(/C=C4\SC(=O)NC4=O)cn3)cc(C34CC5CC(CC(C5)C3)C4)c2o1 [Compound 1, 5-[6-(7-Adamantan-1-yl-2-methyl-benzoxazol-5-yl)-pyridin-3-ylmethylene]-thiazolidine-2,4-dione] | consistent and potent anti-cancer activity at low concentrations | results in the production of phosphorylated JNK proteins; also recorded: induced the phosphorylation of JNK proteins; also recorded: potent activators of the phosphorylation of JNK proteins | – | consistent and potent anti-cancer activity at low concentrations | consistent and potent anti-cancer activity at low concentrations | consistent and potent anti-cancer activity at low concentrations
3 | O=C1NC(=O)/C(=C/c2ccc(-c3cc(C45CC6CC(CC(C6)C4)C5)c4ocnc4c3)nc2)S1 [Compound 2, 5-[6-(7-Adamantan-1-yl-benzoxazol-5-yl)-pyridin-3-ylmethylene]-thiazolidine-2,4-dione] | consistent and potent anti-cancer activity at low concentrations | results in the production of phosphorylated JNK proteins; also recorded: induced the phosphorylation of JNK proteins; also recorded: potent activators of the phosphorylation of JNK proteins | – | consistent and potent anti-cancer activity at low concentrations | consistent and potent anti-cancer activity at low concentrations | consistent and potent anti-cancer activity at low concentrations
4 | O=C1NC(=O)/C(=C/c2ccc(-c3cc(C4CCCCC4)c4ocnc4c3)nc2)S1 [Compound 12, 5-[6-(7-Cyclohexyl-benzoxazol-5-yl)-pyridin-3-ylmethylene]-thiazolidine-2,4-dione] | – | results in the production of phosphorylated JNK proteins; also recorded: activates the phosphorylation of JNK proteins, though perhaps less potently than compound 1 or 2 | – | – | – | –
5 | Nc1nc2cc(-c3ccc(/C=C4\SC(=O)NC4=O)cn3)cc(C34CC5CC(CC(C5)C3)C4)c2o1 [Compound 14, 5-[6-(7-Adamantan-1-yl-2-amino-benzoxazol-5-yl)-pyridin-3-ylmethylene]-thiazolidine-2,4-dione] | consistent and potent anti-cancer activity at low concentrations | – | – | consistent and potent anti-cancer activity at low concentrations | consistent and potent anti-cancer activity at low concentrations | consistent and potent anti-cancer activity at low concentrations

Reference: US20050014767A1, “Benzoxazole, benzothiazole, and benzimidazole derivatives for the treatment of cancer and other diseases” (priority 2003, published 2005)
